Results reported in patent publication EP4745135A1 (Gluetacs Therapeutics (Shanghai) Co., Ltd., priority 2023, dated 2025).

Tests used:
GSPT1 = test: Western blot, degradation of substrate protein in hPBMCs; assay type: cell-based, Human
[1] = biological target: T1, human Cereblon WT GST-tagged protein (Homo sapiens, UniProt Q96SW2); test: CRBN-binding affinity, HTRF (CEREBLON BINDING kit); conditions: for inhibition at 0.5 µM: read-out: Inhibition Rate at 0.5 µM (%); for inhibition at 2 µM: read-out: Inhibition Rate at 2 µM (%); for IC50: CRBN binding, HTRF, 3 hours at room temperature, read-out: HTRF IC50
T1 construct: purchased CISBIO 64BDCRBNPEH
T1 sequence (Q96SW2 whole entry): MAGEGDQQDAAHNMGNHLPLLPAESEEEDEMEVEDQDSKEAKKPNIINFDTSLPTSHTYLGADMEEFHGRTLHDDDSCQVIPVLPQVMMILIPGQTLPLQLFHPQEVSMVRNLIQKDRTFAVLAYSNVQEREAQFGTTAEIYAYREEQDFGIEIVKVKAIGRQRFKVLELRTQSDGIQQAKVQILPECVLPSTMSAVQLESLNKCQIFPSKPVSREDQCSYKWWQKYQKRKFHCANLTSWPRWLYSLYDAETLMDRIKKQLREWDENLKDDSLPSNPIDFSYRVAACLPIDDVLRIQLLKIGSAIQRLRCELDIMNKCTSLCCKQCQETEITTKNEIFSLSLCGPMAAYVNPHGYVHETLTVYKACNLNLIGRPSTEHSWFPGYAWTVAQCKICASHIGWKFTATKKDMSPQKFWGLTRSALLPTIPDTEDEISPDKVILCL

IKZF2 = biological target: T2, IKZF2 (Homo sapiens, UniProt Q96SW2+Q9UKS7); test: Western blot, degradation of substrate protein in hPBMCs; assay type: cell-based
T2 construct: effects of the compounds of the present disclosure on the expression of target proteins in cells; endogenous in cells; host or cells: human PBMCs (Milecell Biotechnologies)
T2 sequence (Q9UKS7 whole entry): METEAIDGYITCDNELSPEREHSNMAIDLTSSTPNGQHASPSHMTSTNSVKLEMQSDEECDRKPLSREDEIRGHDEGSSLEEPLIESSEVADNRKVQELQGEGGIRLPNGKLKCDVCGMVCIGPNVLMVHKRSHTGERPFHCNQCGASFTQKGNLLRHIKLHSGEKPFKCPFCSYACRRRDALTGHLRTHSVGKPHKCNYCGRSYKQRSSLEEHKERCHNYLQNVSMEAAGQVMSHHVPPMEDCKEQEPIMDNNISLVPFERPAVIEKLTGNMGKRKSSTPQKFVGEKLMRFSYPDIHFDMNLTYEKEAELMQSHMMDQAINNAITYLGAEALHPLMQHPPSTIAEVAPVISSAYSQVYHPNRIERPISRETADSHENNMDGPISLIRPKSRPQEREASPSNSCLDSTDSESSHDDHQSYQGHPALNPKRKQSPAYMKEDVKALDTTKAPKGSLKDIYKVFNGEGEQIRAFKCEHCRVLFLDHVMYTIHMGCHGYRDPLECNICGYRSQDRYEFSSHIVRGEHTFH
T2 sequence (Q96SW2 whole entry): as the sequence (Q96SW2 whole entry) above
T2 sequence (Q16531 whole entry partner): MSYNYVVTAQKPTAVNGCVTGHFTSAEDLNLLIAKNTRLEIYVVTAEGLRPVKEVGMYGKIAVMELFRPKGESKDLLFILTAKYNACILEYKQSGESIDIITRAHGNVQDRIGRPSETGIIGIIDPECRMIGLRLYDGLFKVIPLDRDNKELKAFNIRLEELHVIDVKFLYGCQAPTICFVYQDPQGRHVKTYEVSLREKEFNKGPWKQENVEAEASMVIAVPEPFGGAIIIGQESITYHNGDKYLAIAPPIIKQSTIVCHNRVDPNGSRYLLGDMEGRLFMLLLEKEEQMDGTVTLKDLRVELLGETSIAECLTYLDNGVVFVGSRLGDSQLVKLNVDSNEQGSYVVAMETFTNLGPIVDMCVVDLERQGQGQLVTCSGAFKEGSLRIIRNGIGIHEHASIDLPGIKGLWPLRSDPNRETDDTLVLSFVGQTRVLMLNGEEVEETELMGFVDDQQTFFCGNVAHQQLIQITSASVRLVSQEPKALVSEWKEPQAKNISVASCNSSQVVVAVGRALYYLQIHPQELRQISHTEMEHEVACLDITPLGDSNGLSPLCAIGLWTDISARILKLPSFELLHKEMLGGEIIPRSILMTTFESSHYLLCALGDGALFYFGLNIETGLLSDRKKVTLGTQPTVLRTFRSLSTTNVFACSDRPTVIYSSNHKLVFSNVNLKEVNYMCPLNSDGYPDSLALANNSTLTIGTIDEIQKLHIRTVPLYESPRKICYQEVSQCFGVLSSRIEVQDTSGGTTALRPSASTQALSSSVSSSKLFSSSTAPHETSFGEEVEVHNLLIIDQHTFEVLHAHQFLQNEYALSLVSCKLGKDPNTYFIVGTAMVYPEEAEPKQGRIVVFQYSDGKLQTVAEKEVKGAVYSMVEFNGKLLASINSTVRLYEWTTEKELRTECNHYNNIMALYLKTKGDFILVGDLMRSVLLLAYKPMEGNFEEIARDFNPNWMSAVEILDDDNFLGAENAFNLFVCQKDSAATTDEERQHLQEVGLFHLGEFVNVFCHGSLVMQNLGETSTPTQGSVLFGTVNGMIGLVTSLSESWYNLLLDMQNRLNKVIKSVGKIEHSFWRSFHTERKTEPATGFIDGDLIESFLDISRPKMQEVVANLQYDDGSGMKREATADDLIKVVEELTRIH

CK1α = biological target: T3, CK1α (Homo sapiens, UniProt P48729+Q96SW2); test: as above; assay type: cell-based
T3 construct: effects of the compounds of the present disclosure on the expression of target proteins in cells; endogenous in cells; host or cells: human PBMCs (Milecell Biotechnologies)
T3 sequence (P48729 whole entry): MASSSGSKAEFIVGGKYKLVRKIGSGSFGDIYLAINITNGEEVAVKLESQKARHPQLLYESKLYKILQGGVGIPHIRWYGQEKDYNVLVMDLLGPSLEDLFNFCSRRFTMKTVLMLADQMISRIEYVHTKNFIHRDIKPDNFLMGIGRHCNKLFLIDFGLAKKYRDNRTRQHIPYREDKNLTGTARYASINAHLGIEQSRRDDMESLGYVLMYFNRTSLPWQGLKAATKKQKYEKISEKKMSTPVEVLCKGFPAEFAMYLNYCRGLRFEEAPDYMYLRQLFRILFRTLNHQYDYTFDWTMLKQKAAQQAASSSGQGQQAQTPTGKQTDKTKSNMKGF
T3 sequence (Q96SW2 whole entry): as the sequence (Q96SW2 whole entry) above
T3 sequence (Q16531 whole entry partner): as the sequence (Q16531 whole entry partner) above

IKZF3 = biological target: T4, IKZF3 (Homo sapiens, UniProt Q96SW2+Q9UKT9); test: as above; assay type: cell-based
T4 construct: effects of the compounds of the present disclosure on the expression of target proteins in cells; endogenous in cells; host or cells: human PBMCs (Milecell Biotechnologies)
T4 sequence (Q9UKT9 whole entry): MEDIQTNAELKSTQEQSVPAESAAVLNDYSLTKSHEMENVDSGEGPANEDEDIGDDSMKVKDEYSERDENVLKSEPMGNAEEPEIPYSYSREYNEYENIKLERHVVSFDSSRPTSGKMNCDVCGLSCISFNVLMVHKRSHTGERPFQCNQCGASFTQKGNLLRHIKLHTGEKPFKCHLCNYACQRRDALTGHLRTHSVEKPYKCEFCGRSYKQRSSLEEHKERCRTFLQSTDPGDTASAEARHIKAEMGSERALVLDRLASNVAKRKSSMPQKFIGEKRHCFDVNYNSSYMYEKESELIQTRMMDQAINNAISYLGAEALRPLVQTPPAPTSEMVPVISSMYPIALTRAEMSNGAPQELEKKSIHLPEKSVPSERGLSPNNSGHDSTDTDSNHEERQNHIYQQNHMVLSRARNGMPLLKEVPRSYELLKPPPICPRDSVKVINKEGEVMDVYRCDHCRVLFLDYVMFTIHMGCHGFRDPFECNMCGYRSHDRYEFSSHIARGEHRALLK
T4 sequence (Q96SW2 whole entry): as the sequence (Q96SW2 whole entry) above
T4 sequence (Q16531 whole entry partner): as the sequence (Q16531 whole entry partner) above

IKZF1 = biological target: T5, IKZF1 (Homo sapiens, UniProt Q13422+Q96SW2); test: as above; assay type: cell-based
T5 construct: effects of the compounds of the present disclosure on the expression of target proteins in cells; endogenous in cells; host or cells: human PBMCs (Milecell Biotechnologies)
T5 sequence (Q13422 whole entry): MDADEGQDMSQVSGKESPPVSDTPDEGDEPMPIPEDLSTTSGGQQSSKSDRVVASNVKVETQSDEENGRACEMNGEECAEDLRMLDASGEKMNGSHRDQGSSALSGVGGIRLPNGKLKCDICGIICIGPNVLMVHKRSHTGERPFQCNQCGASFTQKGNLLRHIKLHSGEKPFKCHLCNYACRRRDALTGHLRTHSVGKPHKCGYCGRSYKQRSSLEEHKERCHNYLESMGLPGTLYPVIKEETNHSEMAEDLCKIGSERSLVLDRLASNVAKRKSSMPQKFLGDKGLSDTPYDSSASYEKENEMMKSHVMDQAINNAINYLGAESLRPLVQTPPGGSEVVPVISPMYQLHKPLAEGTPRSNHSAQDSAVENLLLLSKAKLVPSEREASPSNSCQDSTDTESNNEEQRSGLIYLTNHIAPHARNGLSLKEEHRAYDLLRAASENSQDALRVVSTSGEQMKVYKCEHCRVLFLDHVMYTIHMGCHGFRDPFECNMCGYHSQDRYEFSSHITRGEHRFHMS
T5 sequence (Q96SW2 whole entry): as the sequence (Q96SW2 whole entry) above
T5 sequence (Q16531 whole entry partner): as the sequence (Q16531 whole entry partner) above

WEE1 = biological target: T6, WEE1 (Homo sapiens, UniProt P30291+Q96SW2); test: as above; assay type: cell-based
T6 construct: effects of the compounds of the present disclosure on the expression of target proteins in cells; endogenous in cells; host or cells: human PBMCs (Milecell Biotechnologies)
T6 sequence (P30291 whole entry): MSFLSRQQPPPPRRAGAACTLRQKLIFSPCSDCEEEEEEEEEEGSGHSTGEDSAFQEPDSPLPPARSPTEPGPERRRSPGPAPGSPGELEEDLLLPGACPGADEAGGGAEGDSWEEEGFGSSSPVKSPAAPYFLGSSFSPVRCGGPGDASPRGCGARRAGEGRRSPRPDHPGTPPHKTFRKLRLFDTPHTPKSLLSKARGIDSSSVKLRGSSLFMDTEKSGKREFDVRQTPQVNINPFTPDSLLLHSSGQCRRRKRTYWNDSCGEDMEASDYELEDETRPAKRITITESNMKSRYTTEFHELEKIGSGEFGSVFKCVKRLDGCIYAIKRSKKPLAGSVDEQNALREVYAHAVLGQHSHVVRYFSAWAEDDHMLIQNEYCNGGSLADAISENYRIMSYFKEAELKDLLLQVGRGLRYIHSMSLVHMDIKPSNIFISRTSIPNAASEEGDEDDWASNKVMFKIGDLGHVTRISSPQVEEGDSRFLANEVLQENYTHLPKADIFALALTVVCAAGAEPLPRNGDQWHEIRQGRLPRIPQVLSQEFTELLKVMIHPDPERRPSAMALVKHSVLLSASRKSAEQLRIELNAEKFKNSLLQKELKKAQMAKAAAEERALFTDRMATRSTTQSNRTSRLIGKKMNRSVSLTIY
T6 sequence (Q96SW2 whole entry): as the sequence (Q96SW2 whole entry) above
T6 sequence (Q16531 whole entry partner): as the sequence (Q16531 whole entry partner) above

[2] = Western blot, 24 hours of compound treatment, compounds tested at 50 nM and 500 nM (concentration for the table not stated)
[3] = 24 hours treatment, compounds at 50 nM and 500 nM (concentration behind the class not stated)

SMILES	GSPT1 substrate protein remaining % (GSPT1; [2])	inhibition at 0.5 µM [1] [%]	inhibition at 2 µM [1] [%]	IKZF2 substrate protein remaining % (IKZF2; [2])	CK1α substrate protein remaining % (CK1α; [2])	IKZF3 substrate protein remaining % (IKZF3; [2])	IKZF 1 substrate protein remaining % (IKZF1; [2])	Wee1 substrate protein remaining % (WEE1; [2])	GSPT1 substrate protein remaining % (GSPT1; [3])	IKZF2 substrate protein remaining % (IKZF2; [3])	CK1α substrate protein remaining % (CK1α; [3])	IKZF3 substrate protein remaining % (IKZF3; [3])	IKZF 1 substrate protein remaining % (IKZF1; [3])	Wee1 substrate protein remaining % (WEE1; [3])	IC50 [1] [nM]
O=C1CCC(N2Cc3c(CN4CCC(c5ccc(Br)cc5)CC4)cccc3C2=S)C(=O)N1 (stereo not drawn) [GT-08592, 3-(4-((4-(4-bromophenyl)piperidin-1-yl)methyl)-1-thioxoisoindolin-2-yl)piperidine-2,6-dione]	B (80%< substrate protein remaining %≤ 100%)	40 to 53	60 to 80	B (80%< substrate protein remaining %≤ 100%)	B (80%< substrate protein remaining %≤ 100%)	B (80%< substrate protein remaining %≤ 100%)	B (80%< substrate protein remaining %≤ 100%)	A (0% ≤ substrate protein remaining % ≤ 80%)							
O=C1CCC(N2Cc3cc(CN4CCC(c5ncnc6scc(-c7ccccc7)c56)CC4)ccc3C2=S)C(=O)N1 (stereo not drawn) [GT-09307, 3-(5-((4-(5-phenylthieno[2,3-d]pyrimidin-4-yl)piperidin-1-yl)methyl)-1-thioxoisoindolin-2-yl)piperidine-2,6-dione]		60 to 80	80 to 100						A (0% ≤ substrate protein remaining % ≤ 80%)	B (80%< substrate protein remaining %≤ 100%)	A (0% ≤ substrate protein remaining % ≤ 80%)	A (0% ≤ substrate protein remaining % ≤ 80%)	A (0% ≤ substrate protein remaining % ≤ 80%)	A (0% ≤ substrate protein remaining % ≤ 80%)	
Cc1cscc1N1CCN(Cc2ccc3c(c2)CN(C2CCC(=O)NC2=O)C3=S)CC1 (stereo not drawn) [GT-05113, 3-(5-((4-(4-methylthiophen-3-yl)piperazin-1-yl)methyl)-1-thioxoisoindolin-2-yl)piperidine-2,6-dione]	A (0% ≤ substrate protein remaining % ≤ 80%)			B (80%< substrate protein remaining %≤ 100%)	B (80%< substrate protein remaining %≤ 100%)	A (0% ≤ substrate protein remaining % ≤ 80%)	A (0% ≤ substrate protein remaining % ≤ 80%)	B (80%< substrate protein remaining %≤ 100%)							< 100
O=C1CCC(N2Cc3cc(CN4CCN(C(c5cccnc5)c5cccnc5)CC4)ccc3C2=S)C(=O)N1 (stereo not drawn) [GT-07735, 3-(5-((4-(di(pyridin-3-yl)methyl)piperazin-1-yl)methyl)-1-thioxoisoindolin-2-yl)piperidine-2,6-dione]	A (0% ≤ substrate protein remaining % ≤ 80%)	53 to 60	80 to 100	B (80%< substrate protein remaining %≤ 100%)	B (80%< substrate protein remaining %≤ 100%)	A (0% ≤ substrate protein remaining % ≤ 80%)	B (80%< substrate protein remaining %≤ 100%)	A (0% ≤ substrate protein remaining % ≤ 80%)							
O=C1CCC(N2Cc3ccc(CN4CCN(C(c5ccccc5)c5ccccn5)CC4)cc3C2=S)C(=O)N1 (stereo not drawn) [GT-05041, 3-(6-((4-(phenyl(pyridin-2-yl)methyl)piperazin-1-yl)methyl)-1-thioxoisoindolin-2-yl)piperidine-2,6-dione]	A (0% ≤ substrate protein remaining % ≤ 80%)			B (80%< substrate protein remaining %≤ 100%)	B (80%< substrate protein remaining %≤ 100%)	B (80%< substrate protein remaining %≤ 100%)	A (0% ≤ substrate protein remaining % ≤ 80%)	B (80%< substrate protein remaining %≤ 100%)							1500 to 1900
O=C1CCC(N2Cc3cc(CN4CCN(c5ccnc(Br)c5F)CC4)ccc3C2=S)C(=O)N1 (stereo not drawn) [GT-09241, 3-(5-((4-(2-bromo-3-fluoropyridin-4-yl)piperazin-1-yl)methyl)-1-thioxoisoindolin-2-yl)piperidine-2,6-dione]		60 to 80	80 to 100						A (0% ≤ substrate protein remaining % ≤ 80%)	B (80%< substrate protein remaining %≤ 100%)	B (80%< substrate protein remaining %≤ 100%)	B (80%< substrate protein remaining %≤ 100%)	B (80%< substrate protein remaining %≤ 100%)	B (80%< substrate protein remaining %≤ 100%)	
O=C1CCC(N2Cc3cc(CN4CCN(C(c5ccccc5)c5cccnc5)CC4)ccc3C2=S)C(=O)N1 (stereo not drawn) [GT-07732, 3-(5-((4-(phenyl(pyridin-3-yl)methyl)piperazin-1-yl)methyl)-1-thioxoisoindolin-2-yl)piperidine-2,6-dione]	A (0% ≤ substrate protein remaining % ≤ 80%)	53 to 60	80 to 100	B (80%< substrate protein remaining %≤ 100%)	B (80%< substrate protein remaining %≤ 100%)	A (0% ≤ substrate protein remaining % ≤ 80%)	B (80%< substrate protein remaining %≤ 100%)	A (0% ≤ substrate protein remaining % ≤ 80%)							
O=C1CCC(N2Cc3cc(CN4CCN(c5ccccn5)CC4)ccc3C2=S)C(=O)N1 (stereo not drawn) [GT-09216, 3-(5-((4-(pyridin-2-yl)piperazin-1-yl)methyl)-1-thioxoisoindolin-2-yl)piperidine-2,6-dione]	A (0% ≤ substrate protein remaining % ≤ 80%)	60 to 80	80 to 100	B (80%< substrate protein remaining %≤ 100%)	B (80%< substrate protein remaining %≤ 100%)	B (80%< substrate protein remaining %≤ 100%)	B (80%< substrate protein remaining %≤ 100%)	B (80%< substrate protein remaining %≤ 100%)							
O=C1CCC(N2Cc3c(CN4CCN(c5ccccn5)CC4)cccc3C2=S)C(=O)N1 (stereo not drawn) [GT-08691, 3-(4-((4-(pyridin-2-yl)piperazin-1-yl)methyl)-1-thioxoisoindolin-2-yl)piperidine-2,6-dione]	B (80%< substrate protein remaining %≤ 100%)	60 to 80	80 to 100	B (80%< substrate protein remaining %≤ 100%)	B (80%< substrate protein remaining %≤ 100%)	B (80%< substrate protein remaining %≤ 100%)	B (80%< substrate protein remaining %≤ 100%)	A (0% ≤ substrate protein remaining % ≤ 80%)							
O=C1CCC(N2Cc3c(CN4CCN(c5cccc(F)n5)CC4)cccc3C2=S)C(=O)N1 (stereo not drawn) [GT-08698, 3-(4-((4-(6-fluoropyridin-2-yl)piperazin-1-yl)methyl)-1-thioxoisoindolin-2-yl)piperidine-2,6-dione]	A (0% ≤ substrate protein remaining % ≤ 80%)	60 to 80	80 to 100	B (80%< substrate protein remaining %≤ 100%)	B (80%< substrate protein remaining %≤ 100%)	B (80%< substrate protein remaining %≤ 100%)	B (80%< substrate protein remaining %≤ 100%)	A (0% ≤ substrate protein remaining % ≤ 80%)							
O=C1CCC(N2Cc3ccc(CN4CCN(c5cccc6sccc56)CC4)cc3C2=S)C(=O)N1 (stereo not drawn) [GT-05035, 3-(6-((4-(benzo[b]thiophen-4-yl)piperazin-1-yl)methyl)-1-thioxoisoindolin-2-yl)piperidine-2,6-dione]	A (0% ≤ substrate protein remaining % ≤ 80%)			A (0% ≤ substrate protein remaining % ≤ 80%)	B (80%< substrate protein remaining %≤ 100%)	A (0% ≤ substrate protein remaining % ≤ 80%)	A (0% ≤ substrate protein remaining % ≤ 80%)	A (0% ≤ substrate protein remaining % ≤ 80%)							100 to 500
O=C1CCC(N2Cc3cc(CN4CCC(c5noc6ccccc56)CC4)ccc3C2=S)C(=O)N1 (stereo not drawn) [GT-09266, 3-(5-((4-(benzo[d]isoxazol-3-yl)piperidin-1-yl)methyl)-1-thioxoisoindolin-2-yl)piperidine-2,6-dione]		60 to 80	80 to 100						A (0% ≤ substrate protein remaining % ≤ 80%)	B (80%< substrate protein remaining %≤ 100%)	B (80%< substrate protein remaining %≤ 100%)	B (80%< substrate protein remaining %≤ 100%)	B (80%< substrate protein remaining %≤ 100%)	B (80%< substrate protein remaining %≤ 100%)	
